From PMC5702617, “Novel peptide probes to assess the tensional state of fibronectin fibers in cancer” (Nature Communications, 2017)
Residues, ends and D or L forms follow the SMILES beside them. *: point of attachment. X2 = N=c1ccc2c(-c3ccc(C(=O)NCCCCCN4C(=O)CC(*)C4=O)cc3C(=O)O)c3ccc(N)c(S(=O)(=O)O)c3oc-2c1S(=O)(=O)O

Key:
[1] = target: fibrillar Fn in human dermal fibroblast ECM (Homo sapiens, UniProt P02751); assay: Binding to ECM assembled by human dermal fibroblasts; format: cell-based; settings: 5 μg ml−1 peptide, 1 h prior to fixation, confocal microscopy
Experimental: Normal human dermal fibroblasts (PromoCell, Vitaris AG, Switzerland) were cultured in alpha minimum essential medium (α-MEM) with 10% fetal bovine serum from BioWest (Nuaillé, France), and split before reaching confluence. Cells were seeded onto Fn-coated 8-well chambered cover glasses (Nunc^TM Lab-Tek^TM Chambered Coverglass, Thermo Fisher Scientific, Reinach, Switzerland) at a density of 50 × 10^3 cells per cm^2 and allowed to attach to the surface before medium exchange to medium containing 50 μg ml^−1 Fn. Dependent on the experiment, a fraction of only 10% of exogenous Fn was double-labeled for FRET analysis to prevent intermolecular FRET. Cells in Figs. 2h and 3 were cultured for 48 h. […] After fixation with a 4% paraformaldehyde solution in PBS, the samples shown in Fig. 3 were stained using DAPI (Invitrogen^TM, Thermo Fisher Scientific, Switzerland) and were further analyzed by means of confocal microscopy, whereas samples shown in Fig. 2h were blocked by 4% donkey serum (Abcam, Switzerland) for 1 h at room temperature and fibronectin was stained using a rabbit polyclonal anti-fibronectin antibody (1:50 diluted, ab23750, Abcam, Switzerland). Samples shown in Fig. 2h were then incubated for 1 h with a donkey anti-rabbit Alexa-546 secondary antibody (Invitrogen^TM, Thermo Fisher Scientific, Switzerland).

relaxed Fn fibers = relaxed Fn fibers (Homo sapiens, UniProt P02751); assay: Single Fn fiber binding assay, relaxed fibers; settings: relaxed fibers (7% strain), 30 fibers from three independent experiments, Student's t test
From the text: (§1) Fn fibers were manually pulled from a concentrated droplet of Fn in PBS (95% unlabeled and 5% Cy5-labeled protein) using a sharp pipette tip and deposited onto a flexible silicone sheet (SMI, USA)[41], rinsed and rehydrated in PBS (schematically shown in Fig. 2c). For affinity measurement Fn fibers were deposited onto a pre-stretched sheet and subsequently relaxed to about a strain of 7% as defined earlier. For measurements of the strain-sensitive binding behavior, fibers were either relaxed or stretched (about 380% strain). […]
Single Fn fiber samples were imaged with an Olympus FV 1000 confocal microscope (Olympus AG, Switzerland) using a 40× water immersion objective with a numerical aperture of 0.9. […] Samples were excited with a 488 nm laser and acceptor (Alexa-546) and donor (Alexa-488) signal was detected in two PMTs using a 12 nm detection bandwidth for donor (514–526 nm) and acceptor (566–578 nm)[25]. […]
Images were analyzed using Fiji-ImageJ and Matlab (MathWorks, Switzerland). For the Fn fiber affinity study, the pixel-wise ratio of FnBPA5-Alexa- 488 signal intensity divided by Fn-Cy5 intensity was calculated for each fiber, if intensities were above a cut-off threshold and below saturation. […] Correction factors for donor bleed through and direct activation of the acceptor used for the analysis were experimentally assessed as shown in Supplementary Fig. 5b, c. […]

[2] = target: relaxed and stretched Fn fibers (Homo sapiens, UniProt P02751); assay: Fn fiber stretch assay, relaxed vs stretched fibers; format: binding; settings: relaxed (7% strain) vs stretched (380% strain) fibers, three independent experiments, p < 0.001
From the text: as §1
Images were analyzed using Fiji-ImageJ and Matlab (MathWorks, Switzerland). For the Fn fiber affinity study, the pixel-wise ratio of FnBPA5-Alexa- 488 signal intensity divided by Fn-Cy5 intensity was calculated for each fiber, if intensities were above a cut-off threshold and below saturation. […] Correction factors for donor bleed through and direct activation of the acceptor used for the analysis were experimentally assessed as shown in Supplementary Fig. 5b, c. […] FRET acceptor channel was corrected for donor bleed through which was measured to be ~20% of the acceptor intensity (Supplementary Fig. 5b). Further analysis such as FRET-Fn-FnBPA5/Fn ratio quantifications were carried out in MatLab.

Chain of relaxed Fn fibers (P02751 32-2477): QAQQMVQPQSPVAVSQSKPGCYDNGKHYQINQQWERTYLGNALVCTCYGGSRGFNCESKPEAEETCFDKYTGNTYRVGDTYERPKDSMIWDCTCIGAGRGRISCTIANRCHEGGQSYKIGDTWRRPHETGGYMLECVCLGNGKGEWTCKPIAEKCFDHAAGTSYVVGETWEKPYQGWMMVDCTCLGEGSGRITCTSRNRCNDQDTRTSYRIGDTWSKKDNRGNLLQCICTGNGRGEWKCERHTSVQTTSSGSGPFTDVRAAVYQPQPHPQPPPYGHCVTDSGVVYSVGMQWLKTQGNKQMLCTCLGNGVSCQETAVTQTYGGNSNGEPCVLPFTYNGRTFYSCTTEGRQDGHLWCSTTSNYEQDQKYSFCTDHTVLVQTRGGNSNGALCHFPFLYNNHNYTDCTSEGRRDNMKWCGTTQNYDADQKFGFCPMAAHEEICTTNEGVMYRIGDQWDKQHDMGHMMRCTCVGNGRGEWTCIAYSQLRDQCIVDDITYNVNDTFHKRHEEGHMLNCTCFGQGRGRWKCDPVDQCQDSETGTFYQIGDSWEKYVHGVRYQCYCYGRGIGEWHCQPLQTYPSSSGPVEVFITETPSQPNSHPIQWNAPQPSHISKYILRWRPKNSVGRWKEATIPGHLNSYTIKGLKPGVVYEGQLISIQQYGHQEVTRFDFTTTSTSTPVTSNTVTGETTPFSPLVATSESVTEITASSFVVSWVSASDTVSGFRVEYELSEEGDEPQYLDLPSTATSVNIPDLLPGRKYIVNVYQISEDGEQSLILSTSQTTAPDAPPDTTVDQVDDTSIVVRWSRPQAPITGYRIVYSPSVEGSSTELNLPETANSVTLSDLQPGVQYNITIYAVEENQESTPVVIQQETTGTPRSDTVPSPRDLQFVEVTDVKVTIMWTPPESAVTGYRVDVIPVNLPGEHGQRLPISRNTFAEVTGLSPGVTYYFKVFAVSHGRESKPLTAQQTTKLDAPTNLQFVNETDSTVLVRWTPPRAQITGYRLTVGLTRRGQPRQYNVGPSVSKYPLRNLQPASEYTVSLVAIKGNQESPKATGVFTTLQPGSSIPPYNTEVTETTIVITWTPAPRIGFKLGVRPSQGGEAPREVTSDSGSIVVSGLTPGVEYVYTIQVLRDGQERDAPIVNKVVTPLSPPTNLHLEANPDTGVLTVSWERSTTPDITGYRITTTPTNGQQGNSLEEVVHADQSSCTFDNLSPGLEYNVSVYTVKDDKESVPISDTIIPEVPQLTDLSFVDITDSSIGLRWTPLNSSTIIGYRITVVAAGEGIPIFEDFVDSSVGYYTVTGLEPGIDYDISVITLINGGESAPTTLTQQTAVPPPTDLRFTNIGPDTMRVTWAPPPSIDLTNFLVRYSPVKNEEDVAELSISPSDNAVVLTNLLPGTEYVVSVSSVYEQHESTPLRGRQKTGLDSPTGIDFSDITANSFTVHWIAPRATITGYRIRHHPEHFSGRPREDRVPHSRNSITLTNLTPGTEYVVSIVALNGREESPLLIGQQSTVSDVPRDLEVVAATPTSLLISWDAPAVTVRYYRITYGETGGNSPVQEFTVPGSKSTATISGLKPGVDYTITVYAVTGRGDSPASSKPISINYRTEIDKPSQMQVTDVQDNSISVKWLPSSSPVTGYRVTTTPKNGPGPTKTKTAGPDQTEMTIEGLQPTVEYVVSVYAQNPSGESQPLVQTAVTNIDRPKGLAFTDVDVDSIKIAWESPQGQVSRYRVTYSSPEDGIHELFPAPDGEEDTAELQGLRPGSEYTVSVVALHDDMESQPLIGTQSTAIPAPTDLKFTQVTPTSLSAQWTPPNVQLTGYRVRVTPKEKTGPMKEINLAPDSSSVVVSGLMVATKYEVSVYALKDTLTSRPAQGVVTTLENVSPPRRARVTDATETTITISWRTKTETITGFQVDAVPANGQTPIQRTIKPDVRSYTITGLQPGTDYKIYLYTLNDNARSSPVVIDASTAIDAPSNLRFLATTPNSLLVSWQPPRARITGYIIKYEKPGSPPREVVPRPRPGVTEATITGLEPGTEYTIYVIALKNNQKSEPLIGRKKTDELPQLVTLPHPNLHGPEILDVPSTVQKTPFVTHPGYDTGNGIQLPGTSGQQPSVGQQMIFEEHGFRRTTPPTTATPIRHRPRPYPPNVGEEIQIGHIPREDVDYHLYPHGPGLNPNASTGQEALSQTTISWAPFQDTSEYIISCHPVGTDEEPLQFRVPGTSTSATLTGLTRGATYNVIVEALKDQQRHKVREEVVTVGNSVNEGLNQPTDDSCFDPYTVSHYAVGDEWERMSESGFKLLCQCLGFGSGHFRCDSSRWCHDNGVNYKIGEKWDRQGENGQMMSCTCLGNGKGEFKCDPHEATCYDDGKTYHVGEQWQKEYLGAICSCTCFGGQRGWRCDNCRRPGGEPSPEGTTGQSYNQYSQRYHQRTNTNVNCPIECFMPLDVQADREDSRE
Chain of fibrillar Fn in human dermal fibroblast ECM (P02751 32-273 limits assumed): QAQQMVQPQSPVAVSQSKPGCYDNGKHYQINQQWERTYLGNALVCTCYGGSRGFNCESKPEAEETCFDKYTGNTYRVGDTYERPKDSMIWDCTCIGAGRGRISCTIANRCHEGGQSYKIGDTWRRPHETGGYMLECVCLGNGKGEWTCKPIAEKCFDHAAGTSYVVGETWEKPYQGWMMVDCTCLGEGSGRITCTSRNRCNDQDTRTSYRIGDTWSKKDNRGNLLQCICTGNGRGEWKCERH
Chain of relaxed and stretched Fn fibers (P02751 32-2477): as the sequence (P02751 32-2477) above

## CC[C@H](C)[C@H](NC(=O)CNC(=O)[C@H](CCCCN)NC(=O)[C@@H](NC(=O)[C@H](CO)NC(=O)[C@H](CCC(=O)O)NC(=O)[C@H](CCC(=O)O)NC(=O)[C@H](CC(=O)O)NC(=O)[C@H](Cc1ccccc1)NC(=O)[C@H](CCC(=O)O)NC(=O)[C@@H](NC(=O)[C@H](CC(C)C)NC(=O)[C@H](CC(N)=O)NC(=O)[C@H](CO)NC(=O)[C@H](CCC(=O)O)NC(=O)[C@@H](NC(=O)[C@@H](NC(=O)[C@@H](NC(=O)[C@H](CCC(N)=O)NC(=O)CNC(=O)CNC(=O)CNC(=O)[C@@H](N)CSC1CC(=O)N(CCCCCNC(=O)c2ccc(-c3c4ccc(=N)c(S(=O)(=O)O)c-4oc4c(S(=O)(=O)O)c(N)ccc34)c(C(=O)O)c2)C1=O)C(C)C)[C@@H](C)O)[C@@H](C)O)C(C)C)[C@@H](C)O)C(=O)N[C@H](C(=O)N[C@H](C(=O)NCC(=O)N[C@@H](C)C(=O)N[C@H](C(=O)N[C@@H](CO)C(=O)N[C@@H](CC(=O)O)C(=O)N[C@@H](Cc1c[nH]cn1)C(=O)N[C@H](C(=O)N[C@H](C(=O)N[C@H](C(=O)N[C@@H](CCC(=O)O)C(=O)N[C@@H](CC(=O)O)C(=O)N[C@H](C(=O)N[C@@H](CCCCN)C(=O)O)[C@@H](C)O)C(C)C)[C@@H](C)O)[C@@H](C)O)C(C)C)[C@@H](C)O)C(C)C (stereo partly shown) [FnBPA5-Alexa488] (H-C(X2)GGGQVTTESNLVEFDEESTKGIVTGAVSDHTTVEDTK-OH; N-terminus and C-terminus assumed)
[1]
  binding to fibroblast-assembled ECM: Specific binding to fibrillar Fn
Relaxed Fn fibers
  binding to single relaxed Fn fibers (words): significant higher binding
Relaxed Fn fibers; listed as FnBPA5-Alexa-488
  binding to single relaxed Fn fibers (words): significantly higher binding to Fn fibers than the scrambled control peptide
[2]
  strain-dependent binding, FnBPA5/Fn ratio: significantly higher peptide binding of FnBPA5 to relaxed Fn fibers compared to stretched fibers
